According to patent US7528252B2, “Derivatives of triazoly-imidazopyridine useful as ligands of the adenosine A2a receptor and their use as medicaments” (Sigma-Tau Industrie Farmaceutiche Riunite S.p.A., priority 2002, dated 2009):

Assays:
P2Y = assay: Receptor binding study, P2Y; details: reference compound
M5 = target: T1, M5 (Homo sapiens, UniProt P08912); assay: Receptor binding study, M5; details: reference compound
T1 sequence (P08912 1-532): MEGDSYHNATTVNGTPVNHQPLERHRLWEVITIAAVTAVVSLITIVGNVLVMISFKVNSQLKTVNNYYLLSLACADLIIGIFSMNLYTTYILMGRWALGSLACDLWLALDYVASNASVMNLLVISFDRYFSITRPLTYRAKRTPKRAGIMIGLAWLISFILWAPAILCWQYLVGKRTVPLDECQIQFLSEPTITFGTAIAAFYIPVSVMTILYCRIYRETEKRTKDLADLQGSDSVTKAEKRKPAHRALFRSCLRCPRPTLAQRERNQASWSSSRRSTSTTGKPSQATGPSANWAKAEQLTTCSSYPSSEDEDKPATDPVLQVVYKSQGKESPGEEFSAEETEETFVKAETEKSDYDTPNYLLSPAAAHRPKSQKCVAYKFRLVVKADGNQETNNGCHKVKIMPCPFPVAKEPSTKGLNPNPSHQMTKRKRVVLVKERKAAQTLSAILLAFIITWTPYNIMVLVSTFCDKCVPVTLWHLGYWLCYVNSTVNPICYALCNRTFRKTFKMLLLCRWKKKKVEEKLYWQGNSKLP

CD1 male mice [1] = assay: Effects on spontaneous motor activity in mice; assay type: in vivo; details: for Horizontal activity / Total distance / Vertical activity: mean ± s.e.
Method: For this study, type CD1 male mice (n=8) were used. The effects of the products under study and of the reference compounds were evaluated using an apparatus consisting of a Plexiglas cage (40 cm×40 cm) surrounded by a series of photocells which monitor the movements of the animals placed inside, connected a computerised system, through which, the signals are collected and later elaborated.
Tests were carried out, after endoperitoneal administration of the products. 15 minutes after treatment, the treated animals, alternating with the controls, were placed inside the cage so as to record their spontaneous movements over a total period of 45 minutes broken down into two observation intervals (15′-45′ and 45′-60′, with respect to the time after treatment).
To examine the possible effects of the compounds studied on motor activity, the following parameters were considered: horizontal activity, vertical activity: total distance.
Except for CGS 21680 (reference compound, described in EP 0 277 917, Ciba-Geigy) which was dissolved in 0.9% NaCl, the products studied were solubilised in DMSO and then diluted in Cremofor EL and 0.9% NaCl (final concentrations: DMSO 15%, Cremofor EL 15%, NaCl 0.9%.

CD1 male mice [2] = assay: Capacity of the products to induce catalepsy in mice; assay type: in vivo; details: endoperitoneal, 30 minutes prior to the test
Method: 10 CD1 male mice were used per group. For this test, a steel bar, 10 cm long, was placed at a height of 4.5 cm above the support surface. Onto this, were placed the front legs of the animals. The presence of catalepsy was determined by measuring the time (in seconds) the animal remained in the posture placed. Later, this parameter was placed relatively, on a scale of rising values (0 to 5) through which, the degree of catalepsy determined in both control animals and in these subjected to treatment with the substances under test could be proportionately expressed.
The reference products and these in this study were administered endoperitoneally, in a volume of 10 ml/kg, 30 minutes prior to the test.
Except for CGS 21680 (reference compound) which was dissolved in 0.9% NaCl, the products in the study and the control antagonist ZM 241385 were solubilised in DMSO and then diluted in Cremofor EL and 0.9% NaCl (final concentrations: DMSO 15%, Cremofor EL 15%, NaCl 0.9%).

[3] = target: T2, human A1 subtype adenosine receptor (Homo sapiens, UniProt P30542); assay: Affinity towards the adenosine A1 receptor ([3H]-DPCPX binding, CHO-K1 membranes); details: read-out: A1 Ki (nM) ± sd
T2 construct: expressed in transfected cells; host or cells: CHO-K1
T2 sequence (P30542 1-326): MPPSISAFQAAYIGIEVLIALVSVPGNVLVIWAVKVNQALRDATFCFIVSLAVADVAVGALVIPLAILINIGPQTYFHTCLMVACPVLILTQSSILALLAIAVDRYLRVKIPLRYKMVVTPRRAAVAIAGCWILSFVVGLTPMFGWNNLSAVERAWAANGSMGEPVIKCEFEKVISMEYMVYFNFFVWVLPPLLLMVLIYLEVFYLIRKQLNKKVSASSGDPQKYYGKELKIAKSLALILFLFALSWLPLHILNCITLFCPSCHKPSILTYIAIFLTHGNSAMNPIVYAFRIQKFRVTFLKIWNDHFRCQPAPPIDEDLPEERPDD

human A2b receptor = target: T3, human A2b receptor (Homo sapiens, UniProt P29275); assay: Affinity towards the adenosine A2b receptor ([3H]-DPCPX binding, HEK 293 membranes); details: read-out: A2b Ki (nM) ± sd
T3 construct: expressed in transfected cells; host or cells: HEK 293
T3 sequence (P29275 1-332): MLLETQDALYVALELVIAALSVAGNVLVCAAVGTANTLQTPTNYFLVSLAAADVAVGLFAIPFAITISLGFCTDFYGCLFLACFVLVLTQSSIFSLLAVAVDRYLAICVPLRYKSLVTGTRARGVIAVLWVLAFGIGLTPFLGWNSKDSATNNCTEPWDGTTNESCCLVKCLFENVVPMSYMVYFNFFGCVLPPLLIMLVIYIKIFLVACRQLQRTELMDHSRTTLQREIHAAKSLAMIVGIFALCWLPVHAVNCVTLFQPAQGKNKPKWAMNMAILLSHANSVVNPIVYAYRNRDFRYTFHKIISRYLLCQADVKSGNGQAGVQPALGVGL
Method: The interactive capacity of each product towards the adenosine A2b receptor was evaluated using membranes from HEK 293 cells stably expressing the human A2b receptor subtype exclusively.
Non-specific binding was measured in the presence of NECA (50 μM).
In binding studies for each compound, eight different concentrations (from 10^−5 M to 10^−12 M) were evaluated in order to obtain competition curves. By means of non-linear regression analysis of the competition curves, the IC50 values, which express the binding affinity of each product, were determined. Using the Cheng Prusoff equation (Ki=IC50/1+(L/Kd)) Ki values were calculated through which the affinity of each product studied, for the receptor investigated, is expressed.

GABAa = assay: Receptor binding study, GABAa; details: reference compound
P2X = assay: Receptor binding study, P2X; details: reference compound
NMDA = assay: Receptor binding study, NMDA; details: reference compound
ADOtransporter = assay: Receptor binding study, ADO transporter; details: reference compound
Cholinetransporter = target: T4, Cholinetransporter (Homo sapiens, UniProt Q9GZV3); assay: Receptor binding study, Choline transporter; details: reference compound
T4 sequence (Q9GZV3 1-580): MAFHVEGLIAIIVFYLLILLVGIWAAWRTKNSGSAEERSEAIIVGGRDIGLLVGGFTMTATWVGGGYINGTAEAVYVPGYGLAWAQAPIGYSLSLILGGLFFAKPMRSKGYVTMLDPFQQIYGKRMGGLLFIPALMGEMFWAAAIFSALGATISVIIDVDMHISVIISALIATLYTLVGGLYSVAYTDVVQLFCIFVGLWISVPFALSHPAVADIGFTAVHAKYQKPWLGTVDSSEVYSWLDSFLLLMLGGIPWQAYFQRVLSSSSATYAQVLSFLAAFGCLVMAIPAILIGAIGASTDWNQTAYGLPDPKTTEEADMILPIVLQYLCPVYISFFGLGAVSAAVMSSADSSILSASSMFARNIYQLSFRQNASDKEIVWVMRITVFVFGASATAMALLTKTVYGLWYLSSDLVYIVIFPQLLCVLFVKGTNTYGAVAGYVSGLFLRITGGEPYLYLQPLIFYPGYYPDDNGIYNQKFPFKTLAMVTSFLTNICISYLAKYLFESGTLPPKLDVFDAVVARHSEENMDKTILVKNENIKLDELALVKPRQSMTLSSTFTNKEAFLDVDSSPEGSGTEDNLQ

mice = assay: Forced swim test in mice; assay type: in vivo; details: 60 minutes before the test; 4 minutes of testing period
Method: Mice were dropped individually into glass cylinders (height: 25 cm, internal diameter 10 cm) containing 10 cm water, maintained at 23° C. The immobility time (sec) was measured during 4 minutes of test. A mouse was judged to be immobile when it remained floating in the water, making only the necessary movements to keep its head above water. Test compound ST 1535 was administered orally to mice, 60 minutes before the test.

human A2a receptor = human A2a receptor (Homo sapiens, UniProt P29274); details: for KiA1/KiA2a: ratio of receptor affinity (selectivity); for Ki: read-out: A2a Ki (nM) ± sd, human A2a, HEK 293 membranes, [3H]-CGS21680
PCP = assay: Receptor binding study, PCP; details: reference compound
[4] = 0.5 mg/kg endoperitoneal, interval 15′-45′ from treatment
[5] = 0.5 mg/kg endoperitoneal, interval 45′-60′ from treatment
[6] = 2.5 mg/kg endoperitoneal, interval 15′-45′ from treatment
[7] = 2.5 mg/kg endoperitoneal, interval 45′-60′ from treatment
[8] = 5 mg/kg endoperitoneal, interval 15′-45′ from treatment
[9] = 5 mg/kg endoperitoneal, interval 45′-60′ from treatment
[10] = 10 mg/kg endoperitoneal, interval 15′-45′ from treatment
[11] = 10 mg/kg endoperitoneal, interval 45′-60′ from treatment

Sequence of human A2a receptor (P29274 whole entry): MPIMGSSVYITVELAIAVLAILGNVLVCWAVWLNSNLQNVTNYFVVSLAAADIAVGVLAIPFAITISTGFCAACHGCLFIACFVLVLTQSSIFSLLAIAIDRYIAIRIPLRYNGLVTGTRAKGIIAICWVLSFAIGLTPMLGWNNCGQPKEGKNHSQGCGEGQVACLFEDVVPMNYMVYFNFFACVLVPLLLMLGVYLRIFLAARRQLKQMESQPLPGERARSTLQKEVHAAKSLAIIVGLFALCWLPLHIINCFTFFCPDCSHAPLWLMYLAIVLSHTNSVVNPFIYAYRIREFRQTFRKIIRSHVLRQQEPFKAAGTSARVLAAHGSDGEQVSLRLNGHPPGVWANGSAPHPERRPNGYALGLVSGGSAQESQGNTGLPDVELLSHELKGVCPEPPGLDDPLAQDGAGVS

Nc1ncnc2c1ncn2[C@H]1C[C@H](O)[C@@H](COP(O)(=S)OP(=O)(O)OP(=O)(O)O)O1 (some centres unmarked) [dATPα S, reference compound]
IC50 (P2Y): 22 nM

C[N+]1(C)CCC(OC(=O)C(c2ccccc2)c2ccccc2)CC1 [Compound 4-DAMP, reference compound]
IC50 (M5): 2 nM

CCNC(=O)[C@H]1O[C@@H](n2cnc3c(N)nc(NCCc4ccc(CCC(=O)O)cc4)nc32)[C@H](O)[C@@H]1O [CGS 21680, reference compound]
Horizontal activity (CD1 male mice [1]; [4]): 1608 ± 328 | Total distance (CD1 male mice [1]; [4]): 504 ± 106 | Vertical activity (CD1 male mice [1]; [4]): 27 ± 11 | Horizontal activity (CD1 male mice [1]; [5]): 471 ± 254 | Total distance (CD1 male mice [1]; [5]): 121 ± 73 | Vertical activity (CD1 male mice [1]; [5]): 10 ± 1

Cn1c(-n2nccn2)nc2c(N)nc(CCc3ccccc3)nc21 [ST 1537, 9-methyl-2-(2-phenylethyl)-8-(2H-1,2,3-triazol-2-yl)-9H-purine-6-ylamine]
appearance of catalepsy in mice (FIG. 1) (CD1 male mice [2]): none of them brought about the appearance of catalepsy in mice | Ki [3]: 80 ± 13 nM | Ki (human A2b receptor): 2330 ± 588 nM | Horizontal activity (CD1 male mice [1]; [6]): 7494 ± 565 | Total distance (CD1 male mice [1]; [6]): 1676 ± 204 | Vertical activity (CD1 male mice [1]; [6]): 590 ± 78 | Horizontal activity (CD1 male mice [1]; [7]): 3133 ± 250 | Total distance (CD1 male mice [1]; [7]): 677 ± 105 | Vertical activity (CD1 male mice [1]; [7]): 210 ± 17 | Horizontal activity (CD1 male mice [1]; [8]): 7203 ± 264 | Total distance (CD1 male mice [1]; [8]): 1503 ± 116 | Vertical activity (CD1 male mice [1]; [8]): 498 ± 77 | Horizontal activity (CD1 male mice [1]; [9]): 2844 ± 299 | Total distance (CD1 male mice [1]; [9]): 532 ± 95 | Vertical activity (CD1 male mice [1]; [9]): 363 ± 91 | Horizontal activity (CD1 male mice [1]; [10]): 8242 ± 847 | Total distance (CD1 male mice [1]; [10]): 2707 ± 950 | Vertical activity (CD1 male mice [1]; [10]): 528 ± 126 | Horizontal activity (CD1 male mice [1]; [11]): 3874 ± 295 | Total distance (CD1 male mice [1]; [11]): 843 ± 149 | Vertical activity (CD1 male mice [1]; [11]): 276 ± 57 | effect on motor activity in mice (in words) (CD1 male mice [1]; independently of the dosage administered (2.5-10 mg/kg)): induces a clear increase in motor activity

NCc1cc(=O)[nH]o1 [muscimol, reference compound]
IC50 (GABAa): 16 nM

Nc1ncnc2c1ncn2[C@@H]1O[C@H](COP(=O)(O)CP(=O)(O)OP(=O)(O)O)[C@@H](O)[C@H]1O [α,β-MeATP, reference compound]
IC50 (P2X): 14 nM

O=C(O)[C@@H]1C[C@H](CP(=O)(O)O)CCN1 [CGS 19755, reference compound]
IC50 (NMDA): 967 nM

O=[N+]([O-])c1ccc(CSc2ncnc3c2ncn3[C@@H]2O[C@H](CO)[C@@H](O)[C@H]2O)cc1 [NBTI, reference compound]
IC50 (ADOtransporter): 0.3 nM

C[N+]1(C)CCOC(O)(c2ccc(-c3ccc(C4(O)C[N+](C)(C)CCO4)cc3)cc2)C1 (centres unmarked) [Hemicholinium-3, reference compound]
IC50 (Cholinetransporter): 12 nM

CN(C)CCCN1c2ccccc2CCc2ccccc21 [imipramine, reference compound]
time of immobility, forced swim test (FIG. 5) (mice): in a manner similar to that observed for the antidepressive drug Imipramine

O=c1nc2[nH]c3ccccc3nc-2c(=O)[nH]1 [Alloxazine, reference compound]
Ki (human A2b receptor): 3.8 ± 2.1 nM

Cc1nc(N)c2nc(-n3nccn3)n(C)c2n1 [ST 1491, 6-amino-2,9-dimethyl-8-(triazol-2-yl)-9(H)-purine]
Ki [3]: 10 ± 1.4 nM | KiA1/KiA2a (human A2a receptor): 0.15 | Ki (human A2a receptor): 70 ± 15 nM

Cn1c(-n2nccn2)nc2c(N)ncnc21 [ST 1490, 6-amino-9-methyl-8-(triazol-2-yl)-9(H)-purine]
Ki [3]: 0.43 nM | KiA1/KiA2a (human A2a receptor): 0.009 | Ki (human A2a receptor): 46 nM

C[C@]12N[C@H](Cc3ccccc31)c1ccccc12 [MK-801, reference compound]
IC50 (PCP): 2 nM
